Patent US20240368203A1, “DEGRADATION OF (EGFR) BY CONJUGATION OF EGFR INHIBITORS WITH E3 LIGASE LIGAND AND METHODS OF USE” (BeiGene, Ltd., priority 2022, published 2024)

What was measured:
EGFR-Del19/T790M/C797S = assay: EGFR degradation HTRF assay in H1975-clone #28 cells; assay type: cell-based; conditions: H1975-clone #28 (Del19/T790M/C797S) cells, 16 h treatment; for DC50: IC50 (DC50), read-out: DC50(nM) H1975 # 28 DTC; for Dmax (%) H1975 # 28 DTC: maximum percentage of inhibition (degradation)
Protocol: (§1) H1975-clone #28(Del19/T790M/C797S) and H1975-clone #25(L858R/T790M/C797S). EGFR-Del19/T790M/C797S and EGFR-L858R/T790M/C797S were stably expressed in H1975 cell lines by lentivirus-mediated over-expression, respectively. The EGFR over-expressed cells then underwent knockout, in which the EGFR targeting sgRNA was designed to only target the endogenous EGFR copies and preserve the exogenous EGFR copies. Followed by knockout, the edited H1975 cells were seeded in 96 well plates at the concentration of […], cultured for about 2 weeks to allow single clones formation. The formed clones were screened by DNA sequencing and whole exon sequencing analysis for the desired edition.
(§2) H1975-clone #28, and H1975-clone #25 were finally confirmed as homozygous Del19/T790M/C797S EGFR, and L858R/T790M/C797S EGFR clones, respectively.
(§3) H1975-#25 and H1975-#28 cells are treated with compounds diluted in 0.2% DMSO cell culture medium on day 2, incubate for 16 h, 37° C., 5% CO2. the final concentration of compounds in all assay is start with 10 uM, 5-fold dilution, total 8 doses were included.
(§4) After 16 h treatment, add HTRF lysis buffer to each well; seal the plate and incubate 1 hour at room temperature on a plate shaker; Once the cells are lysed, 16 μL of cell lysate are transferred to a PE 384-well HTRF detection plate; 4 μL of pre-mixed HTRF antibodies are added to each well; Cover the plate with a plate sealer, spin 1000 rpm for 1 min, Incubate overnight at room temperature; Read on BMG PheraStar with HTRF protocol (337 nm-665 nm-620 nm).
(§5) The inhibition (degradation) percentage of the compound was calculated by the following equation:
(§6) Inhibition percentage of Compound=100−100×(Signal−low control)/(High control−low control),
(§7) The IC50 (DC50) value of a compound can be obtained by fitting the following equation
(§8) Wherein, X and Y are known values, and IC50, Hillslope, Top and Bottom are the parameters obtained by fitting with software. Y is the inhibition percentage (calculated from the equation), X is the concentration of the compound; IC50 is the concentration of the compound when the 50% inhibition is reached. The smaller the IC50 value is, the stronger the inhibitory ability of the compound is. Vice versa, the higher the IC50 value is, the weaker the ability the inhibitory ability of the compound is; Hillslope represents the slope of the fitted curve, generally around 1 *; Bottom represents the minimum value of the curve obtained by data fitting, which is generally 0%±20%; Top represents the maximum value of the curve obtained by data fitting, which is generally 100%±20%. The experimental data were fitted by calculating and analyzing with Dotmatics data analysis software.

EGFR-L858R/T790M/C797S = target: T1, EGFR-L858R/T790M/C797S (Homo sapiens, UniProt P00533, C797S/L858R/T790M); assay: EGFR degradation HTRF assay in H1975-clone #25 cells; assay type: cell-based; conditions: 16 h treatment; for DC50: H1975-clone #25 (L858R/T790M/C797S) cells, IC50 (DC50), read-out: DC50(nM) H1975 # 25-LTC; for Dmax: NCI-H1975, H1975-clone #25 (L858R/T790M/C797S) cells, maximum percentage of inhibition (degradation), read-out: Dmax (%) H1975 # 25-LTC
T1 construct: expressed in transfected cells; host or cells: H1975-clone #25 (lentiviral over-expression, endogenous EGFR knocked out)
T1 sequence (P00533 25-1210 T790M/C797S/L858R): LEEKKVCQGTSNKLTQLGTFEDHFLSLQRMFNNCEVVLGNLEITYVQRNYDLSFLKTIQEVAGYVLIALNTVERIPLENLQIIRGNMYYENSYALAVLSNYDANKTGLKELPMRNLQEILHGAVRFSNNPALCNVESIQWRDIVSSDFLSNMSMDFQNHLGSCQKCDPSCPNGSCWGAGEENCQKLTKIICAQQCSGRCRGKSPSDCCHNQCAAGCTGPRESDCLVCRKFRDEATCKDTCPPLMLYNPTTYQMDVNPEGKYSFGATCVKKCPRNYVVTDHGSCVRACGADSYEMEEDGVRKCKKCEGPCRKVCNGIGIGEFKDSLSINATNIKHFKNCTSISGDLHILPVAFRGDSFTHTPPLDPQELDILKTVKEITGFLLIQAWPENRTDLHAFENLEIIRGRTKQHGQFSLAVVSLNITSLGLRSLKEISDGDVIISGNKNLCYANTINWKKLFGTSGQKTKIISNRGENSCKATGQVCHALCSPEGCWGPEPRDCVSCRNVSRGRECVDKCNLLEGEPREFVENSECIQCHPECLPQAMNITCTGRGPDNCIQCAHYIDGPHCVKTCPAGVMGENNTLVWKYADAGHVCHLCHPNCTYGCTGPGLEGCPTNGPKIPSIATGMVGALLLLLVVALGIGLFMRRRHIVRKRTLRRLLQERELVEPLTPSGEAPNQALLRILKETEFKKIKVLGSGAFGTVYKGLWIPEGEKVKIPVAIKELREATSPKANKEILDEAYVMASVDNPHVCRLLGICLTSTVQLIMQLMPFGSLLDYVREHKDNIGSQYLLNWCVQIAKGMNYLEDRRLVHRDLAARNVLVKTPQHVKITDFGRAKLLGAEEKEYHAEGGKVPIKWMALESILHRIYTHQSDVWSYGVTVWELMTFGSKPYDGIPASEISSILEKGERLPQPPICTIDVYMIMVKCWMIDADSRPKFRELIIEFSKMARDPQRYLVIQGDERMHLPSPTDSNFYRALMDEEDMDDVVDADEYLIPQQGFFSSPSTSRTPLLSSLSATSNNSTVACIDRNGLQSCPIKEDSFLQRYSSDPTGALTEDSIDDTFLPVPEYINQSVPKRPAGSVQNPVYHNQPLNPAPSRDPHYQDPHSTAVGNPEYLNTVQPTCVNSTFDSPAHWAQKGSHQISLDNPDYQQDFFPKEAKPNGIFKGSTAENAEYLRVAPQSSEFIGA
Protocol: as §1, §2, §3, §4, §5, §6, §7, §8

Row | SMILES | DC50 (EGFR-Del19/T790M/C797S) [nM] | DC50 (EGFR-L858R/T790M/C797S) [nM] | Dmax (EGFR-L858R/T790M/C797S) [%] | Dmax (%) H1975 # 28 DTC (EGFR-Del19/T790M/C797S) [%]
1 | CCc1cc(Nc2ncc(Br)c(Nc3ccc4nc(C)c(F)cc4c3P(C)(C)=O)n2)c(OC)cc1N1CCC2(CC1)CCN(C1CC(c3cc(F)c([C@H]4CCC(=O)NC4=O)c(F)c3)C1)CC2 (single isomer, unassigned) [Example 5] | 3.1 | 3.7 | 92 | 90
2 | CCc1ccc2c(P(C)(C)=O)c(Nc3nc(Nc4cc(CC)c(N5CCC(N6CCN(C7CCN(c8cc(F)c([C@H]9CCC(=O)NC9=O)c(F)c8)CC7)CC6)CC5)cc4OC)ncc3Br)ccc2n1 (single isomer, unassigned) [Example 10] | 2.7 | 4.9 | 91 | 88
3 | CCc1ccc2c(P(C)(C)=O)c(Nc3nc(Nc4cc(CC)c(N5CCC(N6CCC(N7CCN(c8cc(F)c([C@H]9CCC(=O)NC9=O)c(F)c8)CC7)CC6)CC5)cc4OC)ncc3Br)ccc2n1 (single isomer, unassigned) [Example 11] | 1.8 | 0.9 | 94 | 88
4 | CCc1cc(Nc2ncc(Br)c(Nc3ccc4nc(C)c(F)cc4c3P(C)(C)=O)n2)c(OC)cc1N1CCC(N2CC(N3CCN(c4cc(F)c([C@H]5CCC(=O)NC5=O)c(F)c4)CC3)C2)CC1 (single isomer, unassigned) [Example 16] | 2.8 | 1.1 | 85 | 88
5 | CCc1cc(Nc2ncc(Br)c(Nc3ccc4nc(C)c(F)cc4c3P(C)(C)=O)n2)c(OC)cc1N1CCC(N2CC3(CCN(c4cc(F)c([C@H]5CCC(=O)NC5=O)c(F)c4)CC3)C2)CC1 (single isomer, unassigned) [Example 18] | 1.7 | 1.7 | 92 | 91
6 | CCc1ccc2c(P(C)(C)=O)c(Nc3nc(Nc4cc(CC)c(N5CCC(N6CC7(CN(c8cc(F)c([C@H]9CCC(=O)NC9=O)c(F)c8)C7)C6)CC5)cc4OC)ncc3Br)ccc2n1 (single isomer, unassigned) [Example 27] | 1.3 | 2.4 | 92 | 91
7 | CCc1cc(Nc2ncc(Br)c(Nc3ccc4nc(C)c(F)cc4c3P(C)(C)=O)n2)c(OC)cc1N1CCC2(CCN(C(=O)CN3CCC(c4ccc(NC5CCC(=O)NC5=O)cc4)CC3)CC2)CC1 (single isomer, unassigned) [Example 29, 3-((4-(1-(2-(9-(4-((5-bromo-4-((5-(dimethylphosphoryl)-3-fluoro-2-methylquinolin-6-yl)amino)pyrimidin-2-yl)amino)-2-ethyl-5-methoxyphenyl)-3,9-diazaspiro[5.5]undecan-3-yl)-2-oxoethyl)piperidin-4-yl)phenyl)amino)piperidine-2,6-dione] | 3.1 | 3.8 | 96 | 88
8 | CCc1ccc2c(P(C)(C)=O)c(Nc3nc(Nc4cc(CC)c(N5CCC(N6CCC(N7CC(c8cc(F)c([C@H]9CCC(=O)NC9=O)c(F)c8)C7)CC6)CC5)cc4OC)ncc3Br)ccc2n1 (single isomer, unassigned) [Example 30] | 13.3 | 10.8 | 89 | 87
9 | CCc1cc(Nc2ncc(Br)c(Nc3ccc4nc(C)c(F)cc4c3P(C)(C)=O)n2)c(OC)cc1N1CCC2(CCN(CCNc3cc(F)c([C@H]4CCC(=O)NC4=O)c(F)c3)CC2)CC1 (single isomer, unassigned) [Example 43] | 3.7 | 4.6 | 90 | 87

Second part, led by results:

Row | DC50 (EGFR-Del19/T790M/C797S) [nM] | DC50 (EGFR-L858R/T790M/C797S) [nM] | Dmax (EGFR-L858R/T790M/C797S) [%] | SMILES | Dmax (%) H1975 # 28 DTC (EGFR-Del19/T790M/C797S) [%]
10 | 1.5 | 2.5 | 84 | CCc1ncc2c(P(C)(C)=O)c(Nc3nc(Nc4cc(CC)c(N5CCC(N6CCC7(CCN(c8cc(F)c([C@H]9CCC(=O)NC9=O)c(F)c8)CC7)CC6)CC5)cc4OC)ncc3Br)ccc2n1 (single isomer, unassigned) [Example 4] | 87
11 | 2.7 | 2.9 | 76 | CCc1ncc2c(P(C)(C)=O)c(Nc3nc(Nc4cc(CC)c(N5CCC(N6CCN(C7CN(c8cc(F)c([C@H]9CCC(=O)NC9=O)c(F)c8)C7)CC6)CC5)cc4OC)ncc3Br)ccc2n1 (single isomer, unassigned) [Example 7] | 86
12 | 1.3 | 3.8 | 86 | CCc1ncc2c(P(C)(C)=O)c(Nc3nc(Nc4cc(CC)c(N5CCC(N6CCN([C@H]7CCN(c8cc(F)c([C@H]9CCC(=O)NC9=O)c(F)c8)C7)CC6)CC5)cc4OC)ncc3Br)ccc2n1 (single isomer, unassigned) [Example 9] | 86
13 | 1.1 | 1.9 | 93 | CCOc1cc(N2CCC(N3CCC4(CC3)CN(c3cc(F)c([C@H]5CCC(=O)NC5=O)c(F)c3)C4)CC2)c(CC)cc1Nc1ncc(Br)c(Nc2ccc3nc(CC)ncc3c2P(C)(C)=O)n1 (single isomer, unassigned) [Example 19] | 91
14 | 2.9 | 1.4 | 92 | CCc1ncc2c(P(C)(C)=O)c(Nc3nc(Nc4cc(CC)c(N5CCC(N6CC7(CCN(c8cc(F)c([C@H]9CCC(=O)NC9=O)c(F)c8)CC7)C6)CC5)cc4OC)ncc3Br)ccc2n1 (single isomer, unassigned) [Example 20] | 90
15 | 2.2 | 3.4 | 92 | CCc1cc(Nc2ncc(Br)c(Nc3ccc4nc(C)c(F)cc4c3P(C)(C)=O)n2)c(OC)cc1N1CCC2(CC1)CCN(C1CCN(c3cc(F)c([C@H]4CCC(=O)NC4=O)c(F)c3)CC1)CC2 [Example 1, (R)-3-(4-(4-(9-(4-((5-bromo-4-((5-(dimethylphosphoryl)-3-fluoro-2-methylquinolin-6-yl)amino)pyrimidin-2-yl)amino)-2-ethyl-5-methoxyphenyl)-3,9-diazaspiro[5.5]undecan-3-yl)piperidin-1-yl)-2,6-difluorophenyl)piperidine-2,6-dione] | 89
16 | 3.5 | 3.4 | 92 | CCc1cc(Nc2ncc(Cl)c(Nc3ccc4nc(C)c(F)cc4c3P(C)(C)=O)n2)c(OC)cc1N1CCC2(CC1)CCN(C1CCN(c3cc(F)c([C@H]4CCC(=O)NC4=O)c(F)c3)CC1)CC2 [Example 2, (R)-3-(4-(4-(9-(4-((5-chloro-4-((5-(dimethylphosphoryl)-3-fluoro-2-methylquinolin-6-yl)amino)pyrimidin-2-yl)amino)-2-ethyl-5-methoxyphenyl)-3,9-diazaspiro[5.5]undecan-3-yl)piperidin-1-yl)-2,6-difluorophenyl)piperidine-2,6-dione] | 89
17 | 1.9 | 2.8 | 95 | CCc1ncc2c(P(C)(C)=O)c(Nc3nc(Nc4cc(CC)c(N5CCC6(CC5)CCN(C5CCN(c7cc(F)c([C@H]8CCC(=O)NC8=O)c(F)c7)CC5)CC6)cc4OC)ncc3Br)ccc2n1 [Example 3, (R)-3-(4-(4-(9-(4-((5-bromo-4-((5-(dimethylphosphoryl)-2-ethylquinazolin-6-yl)amino)pyrimidin-2-yl)amino)-2-ethyl-5-methoxyphenyl)-3,9-diazaspiro[5.5]undecan-3-yl)piperidin-1-yl)-2,6-difluorophenyl)piperidine-2,6-dione] | 91
